Here are results for two compounds from patent US20130041005A1, “PHARMACEUTICAL COMPOSITIONS COMPRISING NEUROPILIN INHIBITORS, AND THEIR USE FOR THE PREVENTION AND/OR TREATMENT OF ANGIOGENIC DISORDERS AND CANCERS” (TRAGEX PHARMA, priority 2011, published 2013).

One data set relates to ERY-1. Put plainly: WST-1 proliferation assay, ERY-1. It counts as cell-based. Conditions: Homo sapiens; Erythroleukemia ERY-1; read-out: Anti-proliferative activity IC50 (μM) ± SD. As to the method:
(§1) All the cancer cell lines were maintained in cultured in DMEM GlutaMAX™ (GIBCO Invitrogen, France, cat no 31966047) enhanced with 10% foetal bovine serum (GIBCO Invitrogen, France, cat no 10270-106) and 1% penicillin G/streptomycin (GIBCO Invitrogen, France, cat no 15140-122). Only Panc-10.5 cells were cultivated in RPMI 1640 medium (Gibco) supplemented with 2 mM L-glutamine, 1.5 g/L sodium bicarbonate, 4.5 g/L glucose, 10 mM HEPES, 1 mM sodium pyruvate, 10 Units/ml human insulin, […] (SVF): 15% (75 ml in 500 ml of medium).
(§2) Cells were grown as subconfluent monolayer and cultured in 75 cm^2 flasks at 37° C., 5% CO2 in a humidified atmosphere, and medium was changed every two days. […]
(§3) The cell proliferation WST-1 assay is a colorimetric assay for the quantification of cell proliferation and viability, based on the enzymatic cleavage of the tetrazolium salt WST-1 added to the culture medium, to a water soluble colored formazan dye, detected by absorbance at 450 nm, by mitochondrial succinate-tetrazolium reductase in viable cells. […]
(§4) After an incubation period of 72 h, at day 4, were prepared the 19 ml medium with reagent WST-1 1 ml ([…]). […] The cells were incubated at 37° C. in a humidified atmosphere of 5% CO2 for 1 h 30 and the absorbance at 450-655 nm was measured by Microplate Manager 5.2 (Bio-Rad).
(In general: Tetrazolium dyes change colour on reduction, which living cells bring about.)

A further data set has as its system KMS-II. Description: WST-1 proliferation assay, KMS-II. In kind it is cell-based. Particulars: Homo sapiens; Myeloma KMS-II; read-out: Anti-proliferative activity IC50 (μM) ± SD. The protocol: as §1, §2, §3, §4
The subject of another data set is MIA PaCa-2. Description: WST-1 proliferation assay, MIA PaCa-2. In kind it is cell-based. Conditions: Homo sapiens; Pancreas MIA PaCa-2, 72 h; read-out: Anti-proliferative activity IC50 (μM) ± SD.
Description: (§5) Several cancer cell lines were used: breast cancer cells (MDA-MB-231 (ATTCC® Number HTB-26™), MDA-MB-436 (ATTCC® Number HTB-130™), MDA-MB-438, BT-474 (ATTCC® Number HTB-20™)); cervical cancer cells (HeLa (ATTCC® Number CCL-2™)); colon cancer cells (HCT-116 (ATTCC® Number CCL-247™) and HT-29 (ATTCC® Number HTB-38™)); osteosarcoma cells (U2OS (ATTCC® Number HTB-96™)); pancreas cancer cells (MIA PaCa-2 (ATTCC® Number CRL-1420™) and Panc-10.5 (ATTCC® Number CRL-2547™)); prostate cancer cells (PC-3 (ATTCC® Number CRL-1435™) and LNCaP (ATTCC® Number CRL-1740™)); brain cancer cells (U87 glioblastoma (ATTCC® Number HTB-14™) and SH-SYSY neuroblastoma (ATTCC® Number CRL-2266™)). […]
(§6) After observation of cells under the microscope, old media were removed and the adherent cells washed gently twice with PBS (Phosphate Buffer Saline, —Ca^2+, —Mg^2+, Lonza cat no: 17-512F/12). […] 50 μl of this solution were transferred in 20 μl of isotonic solution and the cells were counted by count cellular (Beckman Coulter). […]
as §3

The next data set has as its system U87 glioblastoma. Description: WST-1 proliferation assay, U87. In kind it is cell-based. Particulars: Homo sapiens; for IC50: Brain U87, 72 h, read-out: Anti-proliferative activity IC50 (μM) ± SD; for inhibition at 0.1 µM / inhibition at 0.5 µM / inhibition at 1 µM: U87 glioblastoma.
Description: Several cancer cell lines were used: breast cancer cells (MDA-MB-231 (ATTCC® Number HTB-26™), MDA-MB-436 (ATTCC® Number HTB-130™), MDA-MB-438, BT-474 (ATTCC® Number HTB-20™)); cervical cancer cells (HeLa (ATTCC® Number CCL-2™)); colon cancer cells (HCT-116 (ATTCC® Number CCL-247™) and HT-29 (ATTCC® Number HTB-38™)); osteosarcoma cells (U2OS (ATTCC® Number HTB-96™)); pancreas cancer cells (MIA PaCa-2 (ATTCC® Number CRL-1420™) and Panc-10.5 (ATTCC® Number CRL-2547™)); prostate cancer cells (PC-3 (ATTCC® Number CRL-1435™) and LNCaP (ATTCC® Number CRL-1740™)); brain cancer cells (U87 glioblastoma (ATTCC® Number HTB-14™) and SH-SYSY neuroblastoma (ATTCC® Number CRL-2266™)).
as §1
Cells were grown as subconfluent monolayer and cultured in 75 cm^2 flasks at 37° C., 5% CO2 in a humidified atmosphere, and medium was changed every two days. Only cells from passages 2-6 were used for the experiments.
After observation of cells under the microscope, old media were removed and the adherent cells washed gently twice with PBS (Phosphate Buffer Saline, —Ca^2+, —Mg^2+, Lonza cat no: 17-512F/12). All cells were detached with 3 ml of trypsin/EDTA (chelator of calcium and magnesium ions) (Lonza), incubated for 5 min at 37° C., and examined using a microscope to ensure that the cells were detached and floating. Then, 3 ml TNS (Trypsin Neutralizing Solution, Lonza, France, cat no CC-5002) or of culture medium were added to inactivate the trypsin, and the cell suspension was transferred in a falcon and centrifuged for 7 min at 1400 rpm. The supernatant was removed and the cell pellet resuspended in […] of culture medium. 50 μl of this solution were transferred in 20 μl of isotonic solution and the cells were counted by count cellular (Beckman Coulter). At day 0, 200 μl of cellular suspension (3.10^3 cells/well for the HUVEC cells, breast cancer cells (MDA-MB-231 1.10^4 cells/well, MDA-MB-436 1.10^4 cells/well, MDA-MB-438 2.10^4 cells/well, BT-474 2.5.10^4 cells/well); cervical cancer cells (HeLa 5.000 cells/well); colon cancer cells (HCT-116 5.10^3 cells/well, HCT-29 1.1.10^4 cells/well); osteosarcoma cells (U2OS 8.10^3 cells/well); pancreas cancer cells (MIA PaCa-2 5.10^3 cells/well, Panc-10.5 1.5.10^4 cells/well); prostate cancer cells (PC-3 4.10^3 cells/well, LNCaP 2.10^4 cells/well); brain cancer cells (U87 5.10^3 cells/well, SH-SYSY 8.10^4 cells/well)) were then plated on 96 well plates and incubated at 37° C. in a humidified atmosphere of 5% CO2 for 24 h.
At day 1, the compounds 1 or 2 of the invention were added at increasing concentrations (0.1-10 μM) in the wells and plates were incubated at 37° C. in a humidified atmosphere of 5% CO2 for 72 h.
The cell proliferation WST-1 assay is a colorimetric assay for the quantification of cell proliferation and viability, based on the enzymatic cleavage of the tetrazolium salt WST-1 added to the culture medium, to a water soluble colored formazan dye, detected by absorbance at 450 nm, by mitochondrial succinate-tetrazolium reductase in viable cells. An augmentation in enzyme activity will then lead to an increase in the amount of formazan dye formed, which directly correlates to the number of metabolically active cells in the culture.
After an incubation period of 72 h, at day 4, were prepared the 19 ml medium with reagent WST-1 1 ml ([…]). The medium was removed from the 96 microplate and 200 μl of solution WST-1/medium were added for each well. […]

The test system of the next data set is cancer cell lines. Description: wst-1 cytotoxic test, all tested cancer cell lines. Conditions: breast, colon, pancreas, cervical, prostate or brain cancer or osteosarcoma. It counts as cell-based, Human.
Description: as §5, §6, §3

The test system of the next data set is NCI-H460. Put plainly: WST-1 proliferation assay, NCI-H460. Particulars: Homo sapiens; Lung NCI-H460; read-out: Anti-proliferative activity IC50 (μM) ± SD. In kind it is cell-based. The protocol: as §1, §2, §3, §4
The next data set relates to DAUDI. Description: WST-1 proliferation assay, DAUDI. In kind it is cell-based. Particulars: Homo sapiens; Burkitt's lymphoma DAUDI; read-out: Anti-proliferative activity IC50 (μM) ± SD. As to the method:
as §1, §2, §3, §4

Consider `Cc1ccc(-c2nc3ccccc3[nH]2)cc1NC(=S)NC(=O)c1ccc2c(c1)OCCO2` [Compound 1, N-[5-(1H-benzimidazol-2-yl)-2-methylphenyl]-N′-(2,3-dihydro-1,4-benzodioxin-6-ylcarbonyl)thiourea], for which the concentration for half-maximal inhibition (IC50) – broadly, the concentration needed to halve the response being measured – was 0.3 ± 0.04 µM with ERY-1; 2.3 ± 0.01 µM in the data set on KMS-II; 1 µM with MIA PaCa-2; 1 µM with U87 glioblastoma; 0.5 ± 0.09 µM in the data set on NCI-H460; 1 µM in the data set with DAUDI. The inhibition (commonly the drop in the measured response relative to a control, in per cent) at 0.1 µM with U87 glioblastoma stood at 0%. The inhibition at 0.5 µM in the data set with U87 glioblastoma worked out at 45%. In the data set on U87 glioblastoma, the inhibition at 1 µM is 54%. The “cytotoxicity for all the tested cancer cell lines” value in the data set with cancer cell lines is given as “cytotoxic for all the tested cancer cell lines”.

As for `O=C(NC(=S)Nc1cccc(-c2nc3ccccc3[nH]2)c1)c1ccc2c(c1)OCCO2` [Compound 2, N-[3-(1H-benzimidazol-2-yl)phenyl]-N′-(2,3-dihydro-1,4-benzodioxin-6-ylcarbonyl)thiourea], the half-inhibitory concentration (IC50) in the data set on ERY-1 stood at 0.1 ± 0.05 µM; with KMS-II, 1.8 ± 0.02 µM; with MIA PaCa-2 it was 1 µM; in the data set on U87 glioblastoma, 0.3 ± 0.02 µM; in the data set with NCI-H460, 0.3 ± 0.04 µM; with DAUDI it was 0.5 ± 0.02 µM. In the data set on U87 glioblastoma, this compound showed an inhibition at 0.1 µM of 44%. This compound also had an inhibition at 0.5 µM in the data set on U87 glioblastoma of 60%. For the same compound, 1 µM produced 61% inhibition with U87 glioblastoma. In the data set with cancer cell lines, the “cytotoxicity for all the tested cancer cell lines” value is “cytotoxic for all the tested cancer cell lines”.
